Experimental data published in ChEMBL document CHEMBL5505979, “Novel aminothiazoximone-corbelled ethoxycarbonylpyrimidones with antibiofilm activity to conquer Gram-negative bacteria through potential multitargeting effects” (Eur J Med Chem, 2024).
Converted amounts (≈) assume the structure as drawn. The source made the active and inactive calls. No cut-off for these calls is given here.

Tests used:
Staphylococcus aureus [1] = assay: Anti-bacterial activity against methicillin-resistant Staphylococcus aureus N315 assessed as inhibition of bacterial growth; format: functional; details: Staphylococcus aureus, N315; read-out: MIC
Staphylococcus aureus [2] = assay: Anti-bacterial activity against Staphylococcus aureus ATCC 1708 assessed as inhibition of bacterial growth; format: functional; details: Staphylococcus aureus, ATCC 1708; read-out: MIC
Staphylococcus aureus [3] = assay: Anti-bacterial activity against Staphylococcus aureus CMCC (B) 26003 assessed as inhibition of bacterial growth; format: functional
Pseudomonas aeruginosa [4] = assay: Anti-bacterial activity against Pseudomonas aeruginosa ST235 assessed as inhibition of bacterial growth; format: functional; details: Pseudomonas aeruginosa, ST235; read-out: MIC
Pseudomonas aeruginosa [5] = assay: Anti-bacterial activity against Pseudomonas aeruginosa ATCC 9027 assessed as inhibition of bacterial growth; format: functional
[6] = Hemolysis in human RBC assessed as hemolysis rate at effective bactericidal concentration for 3 hrs; format: toxicity, cell-based, Erythrocyte; details: red blood cells, read-out: Activity
[7] = Cytotoxicity against human L02 cells assessed as cell viability at effective concentration measured after 24 hrs; format: toxicity, cell-based; details: read-out: Activity
Acinetobacter baumannii [8] = assay: Antibiofilm activity against Acinetobacter baumannii assessed as inhibition rate of bio-film formation at 8 times of MIC concentration by Crystal violet assay relative to control; format: functional
Escherichia coli [9] = assay: Antibiofilm activity against Escherichia coli ATCC 25922 assessed as inhibition rate of bio-film formation at 8 times of MIC concentration by Crystal violet assay relative to control; format: functional
Acinetobacter baumannii [10] = assay: Reduction of biofilm virulent factors in Acinetobacter baumannii assessed as decrease in hydrophobicity index; format: functional, organism-based
Acinetobacter baumannii [11] = assay: Reduction of biofilm virulent factors in Acinetobacter baumannii assessed as decrease in extracellular polymeric substances (EPS) by measuring optical density at 490 nm at 4 times of MIC concentration by congo red binding assay (reference value: 0.188 to 0.192); format: functional
Escherichia coli [12] = assay: Reduction of biofilm virulent factors in Escherichia coli ATCC 25922 assessed as decrease in extracellular polymeric substances (EPS) by measuring optical density at 490 nm at 1/4 times of MIC concentration by congo red binding assay (reference value: 0.028 to 0.031); format: functional
Escherichia coli [13] = assay: Reduction of biofilm virulent factors in Escherichia coli ATCC 25922 assessed as decrease in extracellular polymeric substances (EPS) by measuring optical density at 490 nm at 1 times of MIC concentration by congo red binding assay (reference value: 0.028 to 0.031); format: functional
Escherichia coli [14] = assay: Reduction of biofilm virulent factors in Escherichia coli ATCC 25922 assessed as decrease in extracellular polymeric substances (EPS) by measuring optical density at 490 nm at 4 times of MIC concentration by congo red binding assay (reference value: 0.028 to 0.031); format: functional
Acinetobacter baumannii [15] = assay: Reduction of biofilm virulent factors in Acinetobacter baumannii assessed as decrease in extracellular polymeric substances (EPS) at 4 times of MIC concentration by congo red binding assay relative to control; format: functional; parameters: scale not given: the % may be the effect or the level left
Acinetobacter baumannii [16] = assay: Anti-bacterial activity against Acinetobacter baumannii assessed as fractional inhibitory concentration measured upto 9 hrs in presence of norfloxacin; format: functional
Escherichia coli [17] = assay: Anti-bacterial activity against Escherichia coli ATCC 25922 assessed at fractional inhibitory concentration measured upto 9 hrs in presence of norfloxacin; format: functional
Escherichia coli [18] = assay: Anti-bacterial activity against Escherichia coli ATCC 25922 assessed at fractional inhibitory concentration index measured upto 9 hrs in presence of norfloxacin; format: functional
Acinetobacter baumannii [19] = assay: Anti-bacterial activity against Acinetobacter baumannii assessed as growth inhibition by measuring optical density measured at 2 time of MIC in presence of 1 times of MIC of norfloxacin by Checkerboard assay (reference value: 0.155); format: functional
Acinetobacter baumannii [20] = assay: Anti-bacterial activity against Acinetobacter baumannii assessed as growth inhibition by measuring optical density measured at 1 time of MIC in presence of 1/4 times of MIC of norfloxacin by Checkerboard assay (reference value: 0.157); format: functional
Acinetobacter baumannii [21] = assay: Anti-bacterial activity against Acinetobacter baumannii assessed as growth inhibition by measuring optical density measured at 1 time of MIC in presence of 1 times of MIC of norfloxacin by Checkerboard assay (reference value: 0.157); format: functional
Acinetobacter baumannii [22] = assay: Anti-bacterial activity against Acinetobacter baumannii assessed as growth inhibition by measuring optical density measured at 1/2 time of MIC in presence of 2 times of MIC of norfloxacin by Checkerboard assay (reference value: 0.152); format: functional
Acinetobacter baumannii [23] = assay: Anti-bacterial activity against Acinetobacter baumannii assessed as growth inhibition by measuring optical density measured at 1/4 time of MIC in presence of 2 times of MIC of norfloxacin by Checkerboard assay (reference value: 0.152); format: functional
Escherichia coli [24] = assay: Anti-bacterial activity against Escherichia coli ATCC 25922 assessed as growth inhibition by measuring optical density measured at 4 time of MIC in presence of 1/4 times of MIC of norfloxacin by Checkerboard assay (reference value: 0.125); format: functional
Escherichia coli [25] = assay: Anti-bacterial activity against Escherichia coli ATCC 25922 assessed as growth inhibition by measuring optical density measured at 2 time of MIC in presence of 1/8 times of MIC of norfloxacin by Checkerboard assay (reference value: 0.128); format: functional
Escherichia coli [26] = assay: Anti-bacterial activity against Escherichia coli ATCC 25922 assessed as growth inhibition by measuring optical density measured at 1 time of MIC in presence of 1/2 times of MIC of norfloxacin by Checkerboard assay (reference value: 0.125); format: functional
Escherichia coli [27] = assay: Anti-bacterial activity against Escherichia coli ATCC 25922 assessed as growth inhibition by measuring optical density measured at 1 time of MIC in presence of 2 times of MIC of norfloxacin by Checkerboard assay (reference value: 0.125); format: functional
Escherichia coli [28] = assay: Anti-bacterial activity against Escherichia coli ATCC 25922 assessed as growth inhibition by measuring optical density measured at 1/2 time of MIC in presence of 1/2 times of MIC of norfloxacin by Checkerboard assay (reference value: 0.124); format: functional
Acinetobacter baumannii [29] = assay: Induction of membrane depolarization Acinetobacter baumannii assessed as increase in red fluorescence intensity at 0.5 to 8 times of MIC concentration measured after 6 hrs by […] assay; format: functional, organism-based
Escherichia coli [30] = assay: Induction of membrane depolarization Escherichia coli ATCC 25922 assessed as increase in red fluorescence intensity at 0.5 to 8 times of MIC concentration measured after 6 hrs by […] assay; format: functional, organism-based
Escherichia coli [31] = assay: Reduction in metabolic activity of Escherichia coli ATCC 25922 assessed as biomass of the fluorescent pink change to non-fluorescent blue; format: functional, organism-based
Escherichia coli [32] = assay: Induction of intracellular ROS accumulation in Escherichia coli ATCC 25922 assessed as fluorescence intensity at 1/4 to 2 times of MIC by DCFH-DA staining based assay; format: functional, organism-based
Escherichia coli [33] = assay: Induction of intracellular ROS accumulation in Escherichia coli ATCC 25922 assessed as larger green fluorescence densities at 1/4 to 2 times of MIC by microscopic imaging assay; format: functional, organism-based
Calf thymus DNA = assay: Binding affinity to calf thymus DNA assessed as compound/DNA binary complex by measuring increase in absorption at 260 nm by UV-vis/fluorescence spectroscopy; format: nucleic-acid assay; details: Bos taurus

SMILES: CCCCc1nc(Cl)c(C2NC(=O)NC(CN3CCN(C(=O)/C(=N/OC)c4csc(N)n4)CC3)=C2C(=O)OCC)[nH]1 (centres undefined)
- MIC (Staphylococcus aureus [1]): 26 µM (≈ 15.8 µg/mL)
- MIC (Staphylococcus aureus [2]): 13 µM (≈ 7.91 µg/mL)
- MIC (Staphylococcus aureus [3]): 26 µM (≈ 15.8 µg/mL)
- MIC (Pseudomonas aeruginosa [4]): 26 µM (≈ 15.8 µg/mL)
- MIC (Pseudomonas aeruginosa [5]): 26 µM (≈ 15.8 µg/mL)
- hemolysis at 3 h [6]: < 5%
- viability at 24 h [7]: > 95%
- inhibition (INH) (Acinetobacter baumannii [8]): >70.2%
- inhibition (INH) (Escherichia coli [9]): >70.2%
- Activity (Acinetobacter baumannii [10]): Dose-Dependent Effect
- OD (Acinetobacter baumannii [11]): 0.097
- OD (Escherichia coli [12]): 0.12
- OD (Escherichia coli [13]): 0.071
- OD (Escherichia coli [14]): 0.061
- Activity (Acinetobacter baumannii [15]): 52.4%
- FIC (Acinetobacter baumannii [16]): 0.5
- FIC (Escherichia coli [17]): 0.5
- fractional inhibitory concentration index (FICI) (Escherichia coli [18]): 0.75
- OD (Acinetobacter baumannii [19]): 0.052
- OD (Acinetobacter baumannii [20]): 0.109
- OD (Acinetobacter baumannii [21]): 0.052
- OD (Acinetobacter baumannii [22]): 0.051
- OD (Acinetobacter baumannii [23]): 0.116
- OD (Escherichia coli [24]): 0.051
- OD (Escherichia coli [25]): 0.122
- OD (Escherichia coli [26]): 0.096
- OD (Escherichia coli [27]): 0.051
- OD (Escherichia coli [28]): 0.107
- Activity (Acinetobacter baumannii [29]): Active
- Activity (Escherichia coli [30]): Active
- Activity (Escherichia coli [31]): Active
- Activity (Escherichia coli [32]): Active
- Activity (Escherichia coli [33]): Active
- Activity (Calf thymus DNA): Active
